From patent publication US20030223978A1, “Conjugates of an AMF ligand and a cytotoxic molecule for use in cancer therapy” (priority 1998, published 2003)

Tests used:
[1] = tested on: B16-F10 metastatic murine melanoma cell line; test: Cell toxicity of AMF-doxorubicin conjugate; assay type: cell-based; details: approximately 0.3, 3, or 30 μg/ml; 3 (Expt. 1) or 4 days (Expt. 2); increasing concentrations
Description: Rabbit PHI is internalized by murine NIH-3T3 fibroblasts (Benlimame et al., 1998, Molec. Biol. Cell 9: 1773-1786) and the ability of the AMF-doxorubicin conjugate to kill metastatic tumor cells was tested with the B16-F10 metastatic murine melanoma cell line. B16-F10 cells were plated at a density of 4,000 cells/cm2 and after 24 hours in culture AMF-doxorubicin conjugate was added at a concentration of approximately 0.3, 3, or 30 μg/ml (FIG. 8). After 3 (Expt. 1) or 4 days (Expt. 2) the cultures were fixed and cells remaining attached to the substrate counted. The number of cells remaining attached to the substrate is presented relative to control cells to which no AMF-doxorubicin was added.

[2] = tested on: NIH-3T3 cells; test: bAMF internalization, immunofluorescence and confocal microscopy; assay type: cell-based, mouse
Description: For the AMF internalization studies, NIH-3T3 cells were pulsed with biotinylated AMF (˜250-500 μg/ml) and chased at 37° C. for the indicated periods of time prior to fixation by the addition of precooled (−80° C.) methanol/acetone directly to the cells. […] Disruption of clathrin coated pits and vesicles by cytoplasmic acidification was performed essentially as previously described (Heuser, J. (1989) J. Cell Biol. 108, 401-411). NIH-3T3 cells were pretreated with acidification medium (DMEM containing 5% calf serum and 50 mM MES pH 5.5) for 15 minutes at 37° C. prior to addition of bAMF in acidification medium for one hour at 37° C. To ensure that cellular acidification blocked clathrin-mediated endocytosis, Texas Red transferrin (50 μg/ml) was added to cells in regular or acidification medium for 30 minutes at 37° C. after which the cells were fixed with 3% paraformaldehyde.
After labeling the coverslips were mounted in Airvol (Air Products and Chemicals Inc., Allentown, Pa.) and viewed in a Zeiss Axioskop fluorescent microscope equipped with a 63× Plan Apochromat objective and selective filters. Confocal microscopy was performed with the 60× Nikon Plan Apochromat objective of a dual channel BioRad 600 laser scanning confocal microscope equipped with a krypton/argon laser and the corresponding dichroic reflectors to distinguish fluorescein and Texas Red labeling. Confocal images were printed using a Polaroid TX 1500 video printer.

[3] = tested on: NIH-3T3 cells; test: bAMF internalization pathway by post-embedding electron microscopy; assay type: cell-based, mouse
Description: Post-embedding immunolabeling for AMF-R was performed as previously described (Benlimame, N. et al. (1995) J. Cell Biol. 129, 459-471). Cells grown on petri dishes were rinsed and incubated at 37° C. in Ringer's solution for 15 minutes before fixing in Ringer's solution containing 2% paraformaldehyde and 0.2% glutaraldehyde for 30 minutes at 37° C. The fixed cells were rinsed in PBS/CM, scraped from the petri dish and collected by centrifugation. The cell pellet was post-fixed for 30 minutes with 1% osmium tetroxide in PBS/CM containing 1.5% potassium ferrocyanide (reduced osmium), dehydrated and embedded in LR-White resin. […] The numerical density of gold particles associated with plasma membrane, caveolae, clathrin coated pits and vesicles, smooth tubules and vesicles, and rough ER was determined. The length of the limiting membrane of the indicated organelles was measured using a Sigma-Scan measurement system and the gold particles associated with these organelles counted. […] Control labeling with non-immune rat IgM antibodies was analyzed similarly.
To follow the endocytic pathway of AMF by electron microscopy, biotinylated AMF was internalized as described for the fluorescence studies and detected by postembedding labeling with streptavidin conjugated to 10 nm gold as described above.

[4] = molecular target: T1, AMF-R (Mus musculus, UniProt Q9R049); test: Cell surface labeling of viable cells at 4° C. with bAMF and anti-AMF-R; assay type: binding; details: viable NIH-3T3 cells, confocal
T1 construct: Confocal imaging of cell surface labeling of viable NIH-3T3 cells at 4° C. with bAMF; endogenous in cells; host or cells: NIH-3T3 fibroblasts (ATCC, a highly spread clone)
Description: Cells were plated on glass cover slips 2 days prior to each experiment at a concentration of 30,000 cells/35 mm dish. For AMF-R surface labeling, the cells were incubated in DMEM minus bicarbonate supplemented with 25 mM Hepes pH 7.2 and 2.5% serum for 15 min at 4° C. prior to labeling with anti-AMF-R primary antibody or biotinylated AMF at 4° C. for 30 min. The cells were washed at 4° C. and then fixed with 3% paraformaldehyde in phosphate buffered saline (pH 7.4) supplemented with 0.1 mM Ca++ and 1 mM Mg++ (PBS/CM) for 15 min at room temperature. For caveolin labeling, after AMF-R surface labeling at 4° C. and fixation as above, the cells were permeabilized with 0.2% Triton X-100 for 10 min, then extensively washed with PBS/CM containing 1% BSA. The cells were incubated with rabbit anti-caveolin polyclonal antibodies, washed, and then incubated with FITC goat anti-rat IgM to reveal anti-AMF-R and Texas Red donkey anti-rabbit IgG to reveal anti-caveolin.

T1 sequence (Q9R049 whole entry): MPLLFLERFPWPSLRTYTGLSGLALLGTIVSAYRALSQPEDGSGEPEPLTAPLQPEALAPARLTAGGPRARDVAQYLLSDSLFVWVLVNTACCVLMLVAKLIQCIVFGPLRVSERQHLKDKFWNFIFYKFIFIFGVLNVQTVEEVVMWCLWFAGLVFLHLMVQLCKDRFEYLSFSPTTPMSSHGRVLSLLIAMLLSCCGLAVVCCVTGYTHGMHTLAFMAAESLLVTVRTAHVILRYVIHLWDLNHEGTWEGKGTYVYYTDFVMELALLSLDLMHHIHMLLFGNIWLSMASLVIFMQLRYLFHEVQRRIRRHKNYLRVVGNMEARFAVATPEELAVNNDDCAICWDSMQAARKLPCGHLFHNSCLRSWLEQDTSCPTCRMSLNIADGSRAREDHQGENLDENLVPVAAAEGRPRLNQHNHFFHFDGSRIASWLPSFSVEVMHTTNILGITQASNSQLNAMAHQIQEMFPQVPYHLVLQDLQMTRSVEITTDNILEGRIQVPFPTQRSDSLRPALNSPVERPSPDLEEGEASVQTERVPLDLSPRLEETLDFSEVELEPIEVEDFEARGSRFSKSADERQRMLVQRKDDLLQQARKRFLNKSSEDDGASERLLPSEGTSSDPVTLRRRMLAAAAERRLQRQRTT

Row | Substance | number of cells remaining attached to the substrate relative to control cells [1] | localization of internalized bAMF ([2]; 1 hour at 37° C., 10-fold excess unlabeled AMF) | localization of internalized bAMF ([2]; 1 hour at 37° C., medium acidified to pH 5.5 (clathrin-mediated endocytosis disrupted)) | localization of internalized bAMF ([2]; 1 hour pulse at 37° C., regular medium) | localization of internalized bAMF ([2]; two hour pulse, chase of 2 or 4 hours) | localization of bAMF by streptavidin-10 nm gold ([3]; 10 minute pulse at 37° C.) | localization of bAMF by streptavidin-10 nm gold ([3]; 30 minute pulse at 37° C.) | colocalization of cell surface bAMF with anti-AMF-R labeling [4]
1 | AMF-doxorubicin: commercially available PHI (AMF) conjugated to the cellular toxin doxorubicin by glutaraldehyde mediated crosslinking | progressive toxicity |  |  |  |  |  |  | 
2 | bAMF: Rabbit phosphohexose isomerase (AMF) biotinylated with NHS-LC-biotin |  | localized only to punctate structures | localized to tubules which colocalize with AMF-R tubules | localized to tubular structures which colocalize with AMF-R tubules | accumulation of bAMF labeling in tubular structures which colocalized with AMF-R tubules | localized to cell surface caveolae | localized to caveolae and smooth vesicles | high degree of colocalization
